Here are results for twelve compounds from patent publication US20250257034A1, “INDOLE DERIVATIVES AS SEROTONERGIC AGENTS USEFUL FOR THE TREATMENT OF DISORDERS RELATED THERETO” (priority 2023, published 2025).

In assay [1] the target is T1, human 5-HT2A receptor (Homo sapiens, UniProt P28223). The assay can be described thus: Human 5-HT2A functional FLIPR assay (agonist mode). Also on record: expressed in transfected cells; host or cells: HTR2A&Gα15-HEK293 (tetracycline induction). The assay is classed as cell-based. On the procedure:
The potential excitatory effects of compounds targeting on human 5-hydroxytryptamine receptor 2A (5-HT2A) under agonist mode was assessed.
HTR2A&Gα15-HEK293 cells were cultured in DMEM medium containing 10% dialyzed FBS and 1×penicillin-streptomycin, 100 μg/mL Hygromycin B and 300 μg/mL G418. The cells were passaged about three times a week, maintained between ˜30% to ˜90% confluence.
1. The cell culture medium (DMEM medium containing 10% dialyzed FBS and 1×penicillin-streptomycin, 100 μg/mL Hygromycin B and 300 μg/mL G418), TrypLE™ Express and DPBS to R.T. was warmed in advance.
2. For induction, 1 μg/ml tetracycline (final concentration) was added to cell culture medium and incubated for 48 hours prior to seeding cells into plate at 37° C., 5% (v/v) C02. The cell culture medium was removed from flask. Cells were washed with DPBS.
3. 2 mL TrypLE™ Express was added to the flask, mixed well by gentle shaking and cells were incubated at 37° C. for a few minutes.
4. The cells were checked for morphological change under microscope, the digestion was stopped by adding 4 mL cell culture medium to the flask when most of cells turned to round.
5. The cell suspension was transferred into a 15 mL centrifuge tube, and then centrifuged at 1,200 rpm for 5 minutes.
6. The supernatant was removed. The cell pellet was resuspended with 2 mL cell culture medium.
7. The cell density was counted using cell counter.
9. 30 μL/well cell suspensions added into a 384-well cell plate (The cell density was 20,000 cells/well).
10. The cell plate was incubated overnight at 37° C., 5% (v/v) CO2.
On the day of experiments, culture medium was removed from the cell plate.
10 μL of assay buffer (20 mM HEPES, in 1x HBSS, pH 7.4) was added to each well of the cell plate.
2×dye solution was prepared following the manual of the F LIP R® Calcium 6 Assay Kit: • i. The dye was diluted with assay buffer. • ii. Probenecid was added to the final concentration of 5 mM. • iii. Vortexed vigorously for I-2 minutes.
4. 10 μL of 2x dye solution was added to each well of the cell plate.
5. The cell plate was placed on plate shaker, followed by shaking at 600 rpm for 2 minutes.
6. The plate was incubated at 37° C. for 2 hours followed by an additional 15-minute incubation at 25° C.
1. Serotonin HCl was prepared to the concentration of 10 mM with DMSO.
2. The test compounds were prepared to the concentration of 10 mM with DMSO.
3. The compounds were added to a 384-well compound source plate.
4. 3-folds serial dilutions were performed with DMSO.
5. 90 nL/well of serial diluted compounds was transferred from source plate to a 384-well compound plate by using an Echo.
6. 30 μL/well of assay buffer (20 mM HEPES in 1x HBSS, pH 7.4) was added to the compound plate.
7. The plate was mixed on-plate shaker for 2 minutes.
1. After the cells were incubated with dye solution, the cell plate, compound plate containing 3×compounds and F LIP R tips were placed into F LIP R.
2. 10 μL of 3×compounds transferred from the compound plate to the cell plate by FLIP R.
3. The plate was read for 160 sec with 1 sec interval and the data of agonist mode was obtained.
1. The normalized fluorescence reading (RFU) was calculated as shown below, wherein F max and F min stand for maximum and minimum of calcium signal during defined time window:
2. EC50 by fitting R F U against log of compound concentrations with Hill equation was calculated using XLfit.
The potential excitatory effects of compounds targeting human 5-hydroxytryptamine receptor 2A (5-HT2A) under agonist mode was assessed.
2. For induction, 1 μg/ml tetracycline (final concentration) was added to cell culture medium and incubated for 48 hours prior to seeding cells into plate at 37° C., 5% (v/v) CO2. The cell culture medium was removed from flask. Cells were washed with DPBS.
1. On the day of experiments, culture medium was removed from the cell plate.
2. 10 μL of assay buffer (20 mM HEPES, in 1×HBSS, pH 7.4) was added to each well of the cell plate.

Assay [2] addresses T1, human 5-HT2A receptor. The assay can be described thus: Human 5-HT2A radioligand binding assay ([3H]-ketanserin). Also on record: expressed in transfected cells; host or cells: HTR2A&Gα15-HEK293 (tetracycline induction). Here is the method: The objective of this study was to evaluate the binding properties of exemplary compounds of Formula (I) on 5-hydroxytryptamine receptor 2A (5-HT2A).
1. The assay buffer was prepared following Table 13 below.
Adjust pH to 7.4 followed by […] sterile filtration
2. 8 doses of reference and test compounds starting from 10 mM stock solution as required was prepared by 5-fold serial dilutions with 100% (v/v) DMSO.
3. UniFilter-96 GF/B plate was pretreated: • i. 50 μl/well of 0.5% (v/v) PEI was added to UniFilter-96 […] plates. The plates were sealed and incubated at 4° C. for 3 hrs. • ii. After incubation, the plates were washed 3 times with ice-cold wash buffer (50 mM Tris, pH7.4).
4. The assay plate was prepared: • i. Cell membrane was diluted with assay buffer and 330 μl/well was added to 96 round deep well plates to reach a concentration of 20 μg/well. • ii. 8 concentrations of reference or test compounds were prepared and 110 μl/well was added to 96 round deep well plates. • iii. [3H]-ketanserin was diluted with assay buffer to 5 nM (5×final concentration) and 110 μl/well was added to 96 round deep well plates.
5. The plate was centrifuged at 1000 rpm for 30 secs and then agitated at 600 rpm, R.T. for 5 min. […]
7. The incubation was stopped by vacuum filtration onto GF/B filter plates followed by 4 times washing with ice-cold wash buffer (50 mM Tris, pH7.4).
9. The filter plates were sealed and 40 μl/well of scintillation cocktail was added.
10. The plate was read by using a Microbeta^2 microplate counter.
1. For reference and test compounds, the results were expressed as % Inhibition, using the normalization equation: N=100−100×(U-C2)/(C1-C2), where U is the unknown value, C1 is the average of high controls, and C2 is the average of low controls.
2. The IC50 was determined by fitting percentage of inhibition as a function of compound concentrations with Hill equation using XLfit. […]

[3] abbreviates: [3H]-ketanserin displacement (Table 43), read-out: h5-HT2A, IC50.
[4] abbreviates: FLIPR calcium, agonist mode, HTR2A&Gα15-HEK293 cells (Table 39), read-out: h5-HT2A, EC50.

Read-outs that look alike come from different tables or passages of the source.

T1 sequence (P28223 whole entry): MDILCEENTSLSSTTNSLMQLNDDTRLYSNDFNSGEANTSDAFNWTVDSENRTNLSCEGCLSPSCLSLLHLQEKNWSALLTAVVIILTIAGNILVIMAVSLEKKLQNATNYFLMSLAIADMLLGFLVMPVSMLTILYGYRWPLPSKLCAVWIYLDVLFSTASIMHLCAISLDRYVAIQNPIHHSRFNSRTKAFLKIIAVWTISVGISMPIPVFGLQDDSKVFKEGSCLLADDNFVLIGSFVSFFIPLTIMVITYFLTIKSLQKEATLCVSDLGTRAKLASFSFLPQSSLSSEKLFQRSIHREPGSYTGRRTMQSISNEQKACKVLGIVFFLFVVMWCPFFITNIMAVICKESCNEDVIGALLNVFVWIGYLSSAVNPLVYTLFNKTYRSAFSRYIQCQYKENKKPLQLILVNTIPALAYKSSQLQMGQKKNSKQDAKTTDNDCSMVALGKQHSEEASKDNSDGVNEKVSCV

As for `COc1ccc2[nH]cc(CCN3CC[C@H](OC(F)F)C3)c2c1` [(S) I-67, (S)-3-(2-(3-(Difluoromethoxy)pyrrolidin-1-yl)ethyl)-5-methoxy-1H-indole], a half-maximal effect in assay [1] (EC50) was put at 0.994 µM. For the same compound, the “RFU@10 μM” value in assay [1] (RFU=Fmax−Fmin (Table 39)) is 2,147 RFU. Moreover, the concentration for half-maximal inhibition (IC50) in assay [2] came out at 4.88 µM.

Turning to `CCN(CC)CCc1c[nH]c2ccc(SC)cc12` [Compound I-12, N,N-Diethyl-2-(5-(methylthio)-1H-indol-3-yl)ethan-1-amine], it took 0.077 µM to reach a half-maximal effect in assay [1] (EC50). In addition, in assay [1] (RFU=Fmax−Fmin (Table 9)), the “RFU@10 μM” value is recorded as 1,041 RFU. The same compound returned a 50% inhibitory concentration (IC50) in assay [2] of 0.78 µM.

As to `[2H]C([2H])([2H])N(CCc1c[nH]c2ccc(SC)cc12)C([2H])([2H])[2H]` [Compound I-1, N,N-Bis(methyl-d3)-2-(5-(methylthio)-1H-indol-3-yl)ethan-1-amine], the concentration giving a half-maximal response (EC50) in assay [1] is 0.045 µM. The “RFU@10 μM” value in assay [1] (RFU=Fmax−Fmin (Table 9)) is 7,177 RFU. In assay [2], this compound yielded a concentration for half-maximal inhibition (IC50) of 0.392 µM.

On to `CN(CCOC(F)F)CCc1c[nH]c2ccccc12` [Compound I-130, N-(2-(1H-Indol-3-yl)ethyl)-2-(difluoromethoxy)-N-methylethan-1-amine], for which the “RFU@10 μM” value in assay [1] (RFU=Fmax−Fmin (Table 39)) is reported as 247 RFU. Further, the IC50 in assay [2] (setting [3]) is 5.68 µM.

`CN(C)CCc1c[nH]c2ccc(OCCOC(F)F)cc12` [Compound I-128, 2-(5-(2-(Difluoromethoxy)ethoxy)-1H-indol-3-yl)-N,N-dimethylethan-1-amine] came in with a concentration for a half-maximal effect (EC50) in assay [1] of 1.21 µM. For the same compound, the “RFU@10 μM” value in assay [1] (RFU=Fmax−Fmin (Table 39)) is 2,159 RFU. The same compound displayed an IC50 in assay [2] of 7.83 µM.

For the compound `COc1ccc2[nH]cc(CCN3CC[C@@H](OC)C3)c2c1` [(R) I-66, (R)-5-methoxy-3-(2-(3-methoxypyrrolidin-1-yl)ethyl)-1H-indole], in assay [1] (RFU=Fmax−Fmin (Table 39)), the “RFU@10 μM” value is recorded as 752 RFU. This compound also returned a concentration for half-maximal inhibition (IC50) in assay [2] of 4.25 µM.

As for `CSc1ccc2[nH]cc(CCN(C)C(C)C)c2c1` [Compound I-19, N-Methyl-N-(2-(5-(methylthio)-1H-indol-3-yl)ethyl)propan-2-amine], the response in assay [1] was half-maximal at 0.033 µM (EC50). For the same compound, the “RFU@10 μM” value in assay [1] (RFU=Fmax−Fmin (Table 9)) was 819 RFU. Further, the IC50 in assay [2] is 0.936 µM.

On to `COc1ccc2[nH]cc(CCN(C)CCOC(F)F)c2c1` [Compound I-71, 2-(Difluoromethoxy)-N-(2-(5-methoxy-1H-indol-3-yl)ethyl)-N-methylethan-1-amine], for which the “RFU@10 μM” value in assay [1] (RFU=Fmax−Fmin (Table 39)) is given as 1,094 RFU. Moreover, the EC50 in assay [1] (setting [4]) worked out at 0.257 µM. Also, the IC50 in assay [2] (setting [3]) came out at 2.3 µM.

`CSc1ccc2[nH]cc(CCN(C(C)C)C(C)C)c2c1` [Compound I-17, N-Isopropyl-N-(2-(5-(methylthio)-1H-indol-3-yl)ethyl)propan-2-amine] had a half-maximal effective concentration (EC50) in assay [1] of 0.037 µM. For the same compound, in assay [1] (RFU=Fmax−Fmin (Table 9)), the “RFU@10 μM” value is 8,546 RFU. This compound gave an IC50 in assay [2] of 1.98 µM.

For the compound `CCN(C)CCc1c[nH]c2ccc(SC)cc12` [Compound I-13, N-Ethyl-N-methyl-2-(5-(methylthio)-1H-indol-3-yl)ethan-1-amine], in assay [1], a half-maximal response (EC50) required 0.018 µM. Moreover, the “RFU@10 μM” value in assay [1] (RFU=Fmax−Fmin (Table 9)) is 726 RFU. Moreover, in assay [2], the IC50 amounted to 0.253 µM.

Take `CN(C)CCc1c[nH]c2ccccc12` [DMT]: the “RFU@10 μM” value in assay [1] (RFU=Fmax−Fmin (Table 9)) and in assay [1] (RFU=Fmax−Fmin (Table 39)) was 3,493 RFU in each case. In addition, the concentration giving a half-maximal response (EC50) amounted to 0.163 µM in assay [1] (FLIPR calcium, agonist mode, HTR2A&Gα15-HEK293 cells (Table 9), read-out: h5-HT2A, EC50) and 0.163 µM in assay [1] (setting [4]). For the same compound, the IC50 in assay [2] ([3H]-ketanserin displacement (Table 14), read-out: h5-HT2A, IC50) was determined as 0.954 µM; in assay [2] (setting [3]), 0.954 µM.

As to `COc1ccc2[nH]cc(CCN3CC[C@@H](OC(F)F)C3)c2c1` [(R) I-67, (R)-3-(2-(3-(Difluoromethoxy)pyrrolidin-1-yl)ethyl)-5-methoxy-1H-indole], the “RFU@10 μM” value in assay [1] (RFU=Fmax−Fmin (Table 39)) worked out at 225 RFU. This compound also returned an IC50 in assay [2] of 4.08 µM.
